For data set [1], the system named is bleomycin-induced ALI in C57/BL6 mice. As to the kind of experiment: Murine model of bleomycin-induced ALI. As to conditions: for animals alive by day 12 following bleomycin instillation: bleomycin 1.2 U/kg i.t.; for mice survived to 14 days: bleomycin + compound.
Experimental: C57/BL6 mice received bleomycin (1.2 U/kg) or sterile saline administered i.t. (intratracheally) and were then treated with FTY720, (S)-FTY720-phosphonate, (0.1 mg/kg i.p.) or PBS vehicle 3× a week until harvesting. Mice were followed for 14 days to assess mortality rates and multiple indices of lung injury.
In a further data set the target is T1, S1P receptor 1 (S1PR1) (Mus musculus, UniProt O08530).
T1 construct: Lung homogenates were collected 14 days after bleomycin instillation; from tissue; host or cells: mouse lung (C57/BL6, bleomycin-injured)
T1 sequence (O08530 whole entry): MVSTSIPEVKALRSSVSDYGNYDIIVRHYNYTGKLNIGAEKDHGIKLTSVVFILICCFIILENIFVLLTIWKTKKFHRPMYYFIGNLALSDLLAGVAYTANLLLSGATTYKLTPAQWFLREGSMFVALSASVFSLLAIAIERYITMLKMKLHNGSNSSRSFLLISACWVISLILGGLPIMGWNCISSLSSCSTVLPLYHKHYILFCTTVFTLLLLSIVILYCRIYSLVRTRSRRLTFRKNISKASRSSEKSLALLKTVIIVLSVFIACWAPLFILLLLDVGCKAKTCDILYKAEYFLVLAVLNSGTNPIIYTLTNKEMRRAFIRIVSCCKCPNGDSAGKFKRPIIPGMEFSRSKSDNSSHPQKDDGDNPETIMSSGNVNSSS
The data set is described as follows: S1PR1 levels in lung homogenates of bleomycin mice by Western blotting. The settings on record: 14 days after bleomycin. The data set is classed as in vivo. The procedure: Lung homogenates were collected 14 days after bleomycin instillation. S1PR1 protein expression was determined by Western blotting (representative blots shown), quantified by densitometry, and normalized to actin concentration in the samples. Mean±S.D. is shown. N=2-3 animals per group.
As discussed above, (S)-FTY720-phosphonate maintains S1PR1 expression in mouse lungs after 24 hr relative to other S1PR1 agonists (FIG. 17). The data shown in FIG. 23 extend these observations to 14 days.
(In general: A western blot detects proteins with antibodies after separation by electrophoresis.)

In another data set the test system is ERK. As to the kind of experiment: Western blotting of HPAEC lysates for phospho-ERK. The settings on record: 5 min. The format is cell-based, human. As to the method: (§1) After treatment as outlined for individual experiments, confluent HPAEC were lysed for Western blotting with phospho-MLC, pan-MLC, phospho-ERK, or pan-ERK antibodies. […] Membranes were then immunoblotted with primary antibodies (1:500-1000, 4° C., overnight) followed by secondary antibodies conjugated to horseradish peroxidase (1:5000, room temperature, 30 min) and detected with enhanced chemiluminescence (Pierce ECL or SuperSignal West Dura; Pierce Biotechnology, Rockford, Ill.) on Biomax MR film (Carestream Health, Rochester, N.Y.).

Data set [2] has as its system LPS-induced lung injury in C57BL/6 mice. As to conditions: single intraperitoneal injection; Peng et al., 2004; cited from earlier work.
Data set [3] concerns HPAEC. As to the kind of experiment: Intracellular calcium by Fura-2. The data set is classed as cell-based, human. The settings on record: 1 μM. The procedure:
To further explore the mechanistic differences in barrier regulation, intracellular calcium responses to the FTY720 analogs, S1P, and FTY720 were examined using Fura-2 (Harbeck et al., 2006, Sci STKE 2006: p16). HPAEC plated on 25-mm glass coverslips were loaded with 1 μM Fura-2/acetoxymethyl ester (Invitrogen, Carlsbad, Calif.) for 20 min at 37° C. in KRBH5 buffer (Krebs-Ringer-bicarbonate solution containing 119 mM NaCl, 4.7 mM KCl, 2.5 mM CaCl2, 1 mM MgCl2, 1 mM KH2PO4, 25 mM NaHCO3, mM HEPES-NaOH (pH 7.4), and 5 mM glucose). After replacement of the Fura-2 loading buffer with fresh KRBH5, coverslips were placed into the specimen stage of an inverted fluorescence microscope (Nikon TE-2000U). A Nikon Super Fluor 10× objective was used for these studies. Filters (340- and 380-nm excitation and 530-nm emission) were used for Fura-2 dual excitation ratio imaging. […] Fura-2 ratios were converted to [Ca^2+] using the equation: [Ca^2+]=(Kd′[(R−Rmin)/(Rmax−R)]×Sf/Sb) (Grynkiewicz et al., 1985, J Biol Chem 260: 3440-3450), where Kd′ is the dissociation constant for Fura-2 in the cytosol (225 nM) and Sf and Sb are the measured emission intensities at 380 nm for Ca^2+-free and Ca^2+-bound Fura-2, respectively. Data summaries for all Ca^2+ measurements are expressed as the means±S.E.
(Calcium assays in cells follow changes in intracellular calcium, usually with a dye or a luminescent sensor.)

For data set [4], the system named is HPAEC. As to the kind of experiment: Transwell transendothelial permeability assay (FITC-dextran). The settings on record: 1 μM (3R, 3S 25 μM), 1 h before FITC-dextran, 2-h incubation. The data set is classed as cell-based, human.
Experimental: As a complementary approach to further characterize the barrier-protective effects of these FTY720 analogs in vitro, the permeability of FITC-labeled dextran across the pulmonary EC monolayer was assayed in response to treatment by the FTY720 analogs. […] Data were normalized to unstimulated control. n=3 independent experiments per condition; *, p<0.01 versus unstimulated condition (see FIG. 26).
Data set [5] has as its system HPAEC. The data set is described as follows: Immunofluorescence of F-actin cytoskeletal rearrangement. The data set is classed as cell-based, human. As to conditions: 1 μM, 5 min (FTY720 5 and 30 min). The procedure:
Immunofluorescence was used to assess cytoskeletal rearrangements of […] cells in response to treatment with FTY720 analogs. Confluent HPAEC were stimulated with vehicle control or 1 μM S1P, 1R, 2R, or 3R for 5 min or with FTY720 (1 μM) for 30 min. EC were then fixed in 3.7% formaldehyde for 10 min, permeabilized with 0.25% Triton X-100 for 5 min, washed in PBS, blocked with 2% bovine serum albumin in Tris-buffered saline with Tween 20 for 1 h, and then incubated for 1 h at room temperature with the primary antibody of interest. After washing, EC were incubated with the appropriate secondary antibody conjugated to immunofluorescent dyes (or Texas Red-conjugated phalloidin for actin staining) for 1 h at room temperature. After further washing with Tris-buffered saline with Tween 20, coverslips were mounted using Prolong Anti-Fade Reagent (Invitrogen) and analyzed using a Nikon Eclipse TE2000 inverted microscope (Nikon, Melville, N.Y.).

Data set [6] has as its system bleomycin-induced ALI in C57/BL6 mice. The settings on record: Shea et al., 2010; cited from earlier work.
For the next data set, the system named is MLC. As to the kind of experiment: Western blotting of HPAEC lysates for phospho-MLC. The format is cell-based, human. The settings on record: 5 min. As to the method:
as §1

Take `CCCCCCCCc1ccc(CC[C@@](N)(CO)CCP(=O)(O)O)cc1` [1S, (S)-3-amino-3-(hydroxymethyl)-5-(4-octylphenyl)pentylphosphonic acid]: in [1] (0.1 mg/kg i.p. 3× a week), the “BAL protein after 14 days, compared to FTY720” value was “Decreased BAL protein” and the “animals alive by day 12 following bleomycin instillation” value is 83%. For the same compound, the “mice survived to 14 days” value in data set [1] is given as 5 out of 6. Also, the “S1PR1 levels in lungs, compared to FTY720-treated animals” value at S1P receptor 1 (S1PR1) is “higher levels of S1PR1”. Moreover, the ERK phosphorylation result in the data set with ERK was “failed to induce phosphorylation”.

Consider `CCCCCCCCc1ccc(CCC(N)(CO)CO)cc1` [FTY720, 2-amino-2-[2-(4-octylphenyl)ethyl]propane-1,3-diol], for which, in [2], the “murine LPS induced pulmonary injury, 24 hours after LPS” value was “attenuate murine LPS induced-pulmonary injury”. Further, the “intracellular calcium [Ca2+]i” value in the data set on HPAEC [3] is reported as “only S1P produced a transient Ca^2+ spike”. For the same compound, in data set [1] (0.1 mg/kg i.p. 3× a week), the “animals alive by day 12 following bleomycin instillation” value is reported as 17%. Further, the “mice survived to 14 days” value in [1] was 1 out of the 6. Further, the “EC permeability to FITC-dextran vs control EC” value in the data set on HPAEC [4] is reported as “significantly decreased permeability”. In addition, in the data set with HPAEC [5], the “cortical actin ring formation / F-actin rearrangement” value is “failed to elicit cortical actin ring formation”. Moreover, the “lung injury and mortality in bleomycin-injured mice on prolonged exposure” value in data set [6] is “increased lung injury and mortality”. The MLC phosphorylation result in the data set with MLC is “Neither FTY720 nor any of its analogs induced significant MLC phosphorylation”.

Values taken from patent US20130079309A1, “Method Of Treating Acute Lung Injury Using Sphingosine 1 Phosphate Analogs Or Sphingosine 1 Phosphate Receptor Agonists” (The Board of Trustees of the University of Illinois, priority 2010, published 2013).
